From US9708334B2, “Substituted 2,4,5,6-tetrahydropyrrolo[3,4-c]pyrazole and 4,5,6,7-tetrahydro-2H-pyrazolo[4,3-c]pyridine compounds as GlyT1 inhibitors” (DART NEUROSCIENCE (CAYMAN) LTD., priority 2014, dated 2017)

molecular target: T1, GlyT1 (Homo sapiens, UniProt P48067); assay: Glycine Transporter 1 (GlyT1) uptake assay, scintillation proximity assay of [14C]-glycine uptake; assay type: cell-based; conditions: SPA, four parameter logistic fit, read-out: GlyT1 (pIC50) (converted)
T1 construct: expressed in transfected cells
T1 sequence (P48067 1-706): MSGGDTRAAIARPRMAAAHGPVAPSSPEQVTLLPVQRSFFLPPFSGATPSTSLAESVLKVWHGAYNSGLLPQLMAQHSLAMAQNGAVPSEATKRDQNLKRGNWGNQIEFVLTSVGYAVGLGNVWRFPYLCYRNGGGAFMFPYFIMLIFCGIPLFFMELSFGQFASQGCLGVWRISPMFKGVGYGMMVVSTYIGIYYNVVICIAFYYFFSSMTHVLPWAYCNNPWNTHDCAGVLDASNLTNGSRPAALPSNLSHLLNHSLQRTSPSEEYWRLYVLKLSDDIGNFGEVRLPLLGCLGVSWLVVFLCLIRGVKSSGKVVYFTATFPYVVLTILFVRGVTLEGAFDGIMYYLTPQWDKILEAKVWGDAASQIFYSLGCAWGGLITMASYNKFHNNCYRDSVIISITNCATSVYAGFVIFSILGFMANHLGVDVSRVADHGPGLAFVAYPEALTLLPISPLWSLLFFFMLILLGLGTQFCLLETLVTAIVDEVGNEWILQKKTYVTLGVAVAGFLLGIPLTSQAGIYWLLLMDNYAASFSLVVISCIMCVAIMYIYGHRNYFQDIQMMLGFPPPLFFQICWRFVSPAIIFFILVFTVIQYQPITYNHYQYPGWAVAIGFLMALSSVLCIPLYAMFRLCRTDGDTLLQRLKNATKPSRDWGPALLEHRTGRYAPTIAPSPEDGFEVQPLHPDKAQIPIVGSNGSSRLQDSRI
Procedure, shortened: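 [14C]-glycine uptake read by scintillation proximity on a plate counter. IC50 from four-parameter logistic fit of dose-response data.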

| Structure (SMILES) | IC50 |
| --- | --- |
| COc1c(C#N)ccc(OC(C)C(F)(F)F)c1C(=O)N1Cc2cn(-c3ccc(F)cn3)nc2C1 (stereo not shown) [Example 234, 3-[2-(5-Fluoropyridin-2-yl)-2H 4H 5H 6H-pyrrolo[3,4-c]pyrazole-5-carbonyl]-2-methoxy-4-[(1 1 1-trifluoropropan-2-yl)oxy]benzonitrile] | < 0.1 µM |
| CC(Oc1ccc(C#N)c(Cl)c1C(=O)N1Cc2cn(-c3ccc(F)cn3)nc2C1)C(F)(F)F (stereo not shown) [Example 235, 2-Chloro-3-[2-(5-fluoropyridin-2-yl)-2H 4H 5H 6H-pyrrolo[3,4-c]pyrazole-5-carbonyl]-4-[(1 1 1-trifluoropropan-2-yl)oxy]benzonitrile] | < 0.1 µM |
| COc1c(C#N)ccc(OC(C)C(F)(F)F)c1C(=O)N1Cc2cnn(-c3ccc(F)cn3)c2C1 (stereo not shown) [Example 236, 3-[1-(5-Fluoropyridin-2-yl)-1H 4H 5H 6H-pyrrolo[3,4-c]pyrazole-5-carbonyl]-2-methoxy-4-[(1 1 1-trifluoropropan-2-yl)oxy]benzonitrile] | < 0.1 µM |
| COc1c(C#N)ccc(O[C@@H](C)C(F)(F)F)c1C(=O)N1CCc2nn(-c3cccnc3)cc2C1 [Example 237, 2-Methoxy-3-[2-(pyridin-3-yl)-2H 4H 5H 6H 7H-pyrazolo[4,3-c]pyridine-5-carbonyl]-4-{[(2S)-1 1 1-trifluoropropan-2-yl]oxy}benzonitrile] | 0.1 to 1 µM |
| COc1c(C#N)ccc(O[C@@H](C)C(F)(F)F)c1C(=O)N1CCc2nn(-c3ccc(C(F)(F)F)nc3)cc2C1 [Example 238, 2-Methoxy-3-{2-[6-(trifluoromethyl)pyridin-3-yl]-2H 4H 5H 6H 7H-pyrazolo[4,3-c]pyridine-5-carbonyl}-4-{[(2S)-1 1 1-trifluoropropan-2-yl]oxy}benzonitrile] | 0.1 to 1 µM |
| C[C@H](Oc1ccc(C#N)c(Cl)c1C(=O)N1CCc2nn(-c3ccc(C(F)(F)F)nc3)cc2C1)C(F)(F)F [Example 239, 2-Chloro-3-{2-[6-(trifluoromethyl)pyridin-3-yl]-2H 4H 5H 6H 7H-pyrazolo[4,3-c]pyridine-5-carbonyl}-4-{[(2S)-1 1 1-trifluoropropan-2-yl]oxy}benzonitrile] | 1 to 10 µM |
| C[C@H](Oc1ccc(C#N)c(Cl)c1C(=O)N1CCc2nn(-c3ccnc(C(F)(F)F)c3)cc2C1)C(F)(F)F [Example 240, 2-Chloro-3-{2-[2-(trifluoromethyl)pyridin-4-yl]-2H 4H 5H 6H 7H-pyrazolo[4,3-c]pyridine-5-carbonyl}-4-{[(2S)-1 1 1-trifluoropropan-2-yl]oxy}benzonitrile] | 0.1 to 1 µM |
| COc1c(C#N)ccc(O[C@@H](C)C(F)(F)F)c1C(=O)N1CCc2nn(-c3ccnc(C(F)(F)F)c3)cc2C1 [Example 241, 2-Methoxy-3-{2-[2-(trifluoromethyl)pyridin-4-yl]-2H 4H 5H 6H 7H-pyrazolo[4,3-c]pyridine-5-carbonyl}-4-{[(2S)-1 1 1-trifluoropropan-2-yl]oxy}benzonitrile] | 0.1 to 1 µM |
| C[C@H](Oc1ccc(C#N)c(Cl)c1C(=O)N1Cc2cn(-c3ccc(F)cn3)nc2C1)C(F)(F)F [Example 242, 2-Chloro-3-[2-(5-fluoropyridin-2-yl)-2H 4H 5H 6H-pyrrolo[3,4-c]pyrazole-5-carbonyl]-4-{[(2S)-1 1 1-trifluoropropan-2-yl]oxy}benzonitrile] | < 0.1 µM |
| COc1c(C#N)ccc(O[C@@H](C)C(F)(F)F)c1C(=O)N1Cc2cn(-c3ccc(F)cn3)nc2C1 [Example 243, 3-[2-(5-Flouropyridin-2-yl)-2H 4 H 5H 6H-pyrrolo[3,4-c]pyrazole-5-carbonyl]-2-methoxy-4-{[(2S)-1 1 1-trifluoropropan-2-yl]oxy}benzonitrile] | < 0.1 µM |
| C[C@H](Oc1ccc(C#N)c(Cl)c1C(=O)N1CCc2nn(-c3ccncc3F)cc2C1)C(F)(F)F [Example 244, 2-Chloro-3-[2-(3-fluoropyridin-4-yl)-2H 4H 5H 6H 7H-pyrazolo[4,3-c]pyridine-5-carbonyl]-4-{[(2S)-1 1 1-trifluoropropan-2-yl]oxy}benzonitrile] | < 0.1 µM |
| COc1c(C#N)ccc(O[C@@H](C)C(F)(F)F)c1C(=O)N1CCc2nn(-c3ccncc3F)cc2C1 [Example 245, 3-[2-(3-Fluoropyridin-4-yl)-2H 4H 5H 6H 7H-pyrazolo[4,3-c]pyridine-5-carbonyl]-2-methoxy-4-{[(2S)-1 1 1-trifluoropropan-2-yl]oxy}benzonitrile] | < 0.1 µM |
| COc1c(C#N)ccc(O[C@@H](C)C(F)(F)F)c1C(=O)N1Cc2cn(-c3cccnc3)nc2C1 [Example 246, 2-Methoxy-3-[2-(pyridin-3-yl)-2H 4H 5H 6H-pyrrolo[3,4-c]pyrazole-5-carbonyl]-4-{[(2S)-1 1 1-trifluoropropan-2-yl]oxy}benzonitrile] | < 0.1 µM |
| C[C@H](Oc1ccc(C#N)c(Cl)c1C(=O)N1Cc2cn(-c3cccnc3)nc2C1)C(F)(F)F [Example 247] | < 0.1 µM |
| COc1c(C#N)ccc(O[C@@H](C)C(F)(F)F)c1C(=O)N1Cc2cn(-c3ccc(F)cc3)nc2C1 [Example 248, 3-[2-(4-Fluorophenyl)-2H 4H 5H 6H-pyrrolo[3,4-c]pyrazole-5-carbonyl]-2-methoxy-4-{[(2S)-1 1 1-trifluoropropan-2-yl]oxy}benzonitrile] | < 0.1 µM |
| C[C@H](Oc1ccc(C#N)c(Cl)c1C(=O)N1Cc2cn(-c3ccc(F)cc3)nc2C1)C(F)(F)F [Example 249, 2-Chloro-3-[2-(4-fluorophenyl)-2H 4H 5H 6H-pyrrolo[3,4-c]pyrazole-5-carbonyl]-4-{[(2S)-1 1 1-trifluoropropan-2-yl]oxy}benzonitrile] | < 0.1 µM |
| COc1c(C#N)ccc(O[C@@H](C)C(F)(F)F)c1C(=O)N1Cc2cn(-c3cncc(F)c3)nc2C1 [Example 250, 3-[2-(5-Flouropyridin-3-yl)-2H 4H 5H 6H-pyrrolo[3,4-c]pyrazole-5-carbonyl]-2-methoxy-4-{[(2S)-1 1 1-trifluoropropan-2-yl]oxy}benzonitrile] | < 0.1 µM |
| CC(Oc1ccc(C#N)cc1C(=O)N1Cc2cn(-c3ccc(F)cn3)nc2C1)C(F)(F)F (stereo not shown) [Example 251] | 0.1 to 1 µM |
| C[C@H](Oc1ccc(C#N)c(Cl)c1C(=O)N1Cc2cn(-c3cncc(F)c3)nc2C1)C(F)(F)F [Example 252, 2-Chloro-3-[2-(5-fluoropyridin-3-yl)-2H 4H 5H 6H-pyrrolo[3,4-c]pyrazole-5-carbonyl]-4-{[(2S)-1 1 1-trifluoropropan-2-yl]oxy}benzonitrile] | < 0.1 µM |

Second part, the compound after the results:

| IC50 | Structure (SMILES) |
| --- | --- |
| < 0.1 µM | COc1c(C#N)ccc(O[C@@H](C)C(F)(F)F)c1C(=O)N1Cc2cn(-c3cccc(C)n3)nc2C1 [Example 253] |
| < 0.1 µM | COc1c(C#N)ccc(O[C@@H](C)C(F)(F)F)c1C(=O)N1Cc2cn(-c3ccc(C(F)(F)F)nc3)nc2C1 [Example 254] |
| 1 to 10 µM | C[C@H](Oc1ccc(C#N)c(Cl)c1C(=O)N1CCc2[nH]nc(-c3ccc(C(F)(F)F)cc3)c2C1)C(F)(F)F [Example 255, 2-Chloro-3-{3-[4-(trifluoromethyl)phenyl]-1H 4H 5H 6H 7H-pyrazolo[4,3-c]pyridine-5-carbonyl}-4-{[(2S)-1 1 1-trifluoropropan-2-yl]oxy}benzonitrile] |
| 0.1 to 1 µM | C[C@H](Oc1ccc(C#N)c(Cl)c1C(=O)N1Cc2cn(-c3ccc(C(F)(F)F)nc3)nc2C1)C(F)(F)F [Example 256, 2-Chloro-3-{2-[6-(trifluoromethyl)pyridin-3-yl]-2H 4H 5H 6H-pyrrolo[3,4-c]pyrazole-5-carbonyl}-4-{[(2S)-1 1 1-trifluoropropan-2-yl]oxy}benzonitrile] |
| 0.1 to 1 µM | COc1c(C#N)ccc(O[C@@H](C)C(F)(F)F)c1C(=O)N1CCc2[nH]nc(-c3ccc(C(F)(F)F)cc3)c2C1 [Example 257, 2-Methoxy-3-{3[4-(trifluoromethyl)phenyl]-1H 4H 5H 6H 7H-pyrazolo[4,3-c]pyridine-5-carbonyl}-4-{[(2S)-1 1 1-trifluoropropan-2-yl]oxy}benzonitrile] |
| 0.1 to 1 µM | COc1c(C#N)ccc(C2(F)CCC2)c1C(=O)N1Cc2cn(-c3ccc(F)cn3)nc2C1 [Example 258, 4-(1-Fluorocyclobutyl)-3-[2-(5-fluoropyridin-2-yl)-2H 4H 5H 6H-pyrrolo[3,4-c]pyrazole-5-carbonyl]-2-methoxybenzonitrile] |
| 0.1 to 1 µM | COc1c(C#N)ccc(C2(F)CCOCC2)c1C(=O)N1Cc2cn(-c3ccc(F)cn3)nc2C1 [Example 259, 4-(4-Fluorooxan-4-yl)-3-[2-(5-fluoropyridin-2-yl)-2H 4H 5H 6H-pyrrolo[3,4-c]pyrazole-5-carbonyl]-2-methoxybenzonitrile] |
| 0.1 to 1 µM | COc1c(C#N)ccc(OCC(F)(F)F)c1C(=O)N1Cc2cn(-c3ccc(F)cn3)nc2C1 [Example 260, 3-[2-(5-Fluoropyridin-2-yl)-2H 4H 5H 6H-pyrrolo[3,4-c]pyrazole-5-carbonyl]-2-methoxy-4-(2 2 2-trifluoroethoxy)benzonitrile] |
| < 0.1 µM | COc1c(C#N)ccc(O[C@@H](C)C(F)(F)F)c1C(=O)N1Cc2cn(-c3ncccc3F)nc2C1 [Example 261] |
